For data set [1] the following is noted: oil/water partition coefficient; Table 1; ref PubChem; cited from earlier work.
Data set [2] is described as follows: Parallel artificial membrane permeability assay for the blood–brain barrier (PAMPA-BBB). Particulars: for AerExt log Pe: compound within AerExt donor solution; for AerExt log Pe / RootExt log Pe: 37 °C, 4 h, PBS pH 7.4, n.q. = not quantified in the acceptor plate; for RootExt log Pe: compound within RootExt donor solution; for Papp at 4 h: PAMPA, pH 7.4; for AerExt Cross BBB Potential: compound within AerExt; for AerExt Cross BBB Potential / RootExt Cross BBB Potential: PAMPA-BBB; for RootExt Cross BBB Potential: compound within RootExt. (In PAMPA a lipid-coated filter parts donor from acceptor wells.)
Experimental: The permeability of bioactive compounds from AerExt and RootExt across the BBB was assessed using the PAMPA-BBB assay, following the methodology described by [11]. Firstly, the BBB solution was prepared by dissolving 8 mg of PBL and 4 mg of cholesterol in 600 μL of n-dodecane. The initial donor solution was prepared by mixing 1 mL of AerExt or RootExt (at 10 mg mL^−1 in EtOH) with 1 mL of buffer (PBS, pH = 7.4, 10 mM). The filter membrane of the donor plate was coated with 5 μL of BBB solution. The acceptor plate was filled with 350 μL of buffer, and the donor plate was carefully placed on top of the acceptor plate to form a “sandwich-like” assembly. Subsequently, 350 μL of the donor solution was added to the donor plate, which was then covered and incubated at 37 °C for 4 h in the dark. After the incubation time, 300 μL of the solution was collected from each plate, transferred into separate vials, and evaporated using a SpeedVac system at 40 °C under 13 mbar pressure. The dried acceptor and donor solutions were dissolved in 50 μL of pure EtOH before being subjected to HPLC-Q-TOF-MS/MS and GC-Q-TOF-MS analysis. Permeability (Pe) across the PAMPA-BBB of the bioactive compound was calculated according to Equation (1) [54], with modifications in concentration rates.Pe = −ln[1 − CA(t)/Cequilibrium]/(A × (1/VD + 1/VA) × t)(1)
Cequilibrium was calculated according to Equation (2):Cequilibrium = [CD(t) × VD + CA(t) × VA]/(VD + VA)(2)
The HPLC-MS and GC-MS chromatograms were processed using the Agilent Mass Hunter Qualitative software (version B.10.0) to verify the retention time and exact mass of the compounds previously reported by us [25] and to extract their peak area to calculate the BBB permeability.

The subject of data set [3] is HBMEC cells. Briefly: Blood–brain barrier transport study in HBMEC Transwell monolayer. The settings on record: for AerExt Te (%) ± SD 2 h / AerExt Te (%) ± SD 4 h / AerExt Te (%) ± SD 24 h: AerExt 40 µg mL^−1 apical; for AerExt Te (%) ± SD 2 h / AerExt Te (%) ± SD 4 h / AerExt Te (%) ± SD 24 h / RootExt Te (%) ± SD 2 h / RootExt Te (%) ± SD 4 h / RootExt Te (%) ± SD 24 h: n.q. = not quantified in the basolateral compartment; for RootExt Te (%) ± SD 2 h / RootExt Te (%) ± SD 4 h / RootExt Te (%) ± SD 24 h: RootExt 20 µg mL^−1 apical; for crossing of the HBMEC-BBB: AerExt 40 µg mL^−1 / RootExt 20 µg mL^−1, 2, 4, 24 h; for abundance in the apical compartment relative to the basolateral compartment (times higher) / Te of newly formed sulfated metabolites: after AerExt 40 µg mL^−1 treatment of HBMEC; for Te of newly formed sulfated metabolites: tentatively identified metabolites; for AerExt Te (%) ± SD 24 h / RootExt Te (%) ± SD 24 h / Te of newly formed sulfated metabolites: 24 h.
Experimental: After the toxicity evaluation, the HBMEC cell line was also used as a simplified in vitro model of the BBB endothelium. Cells were seeded at a density of 1.6 × 10^5 cells/cm^2 in 12-well Transwell® plates (Corning Costar Corp., Corning, USA) with a pore diameter of 0.4 μm, pre-coated with type I rat tail collagen (100 μg mL^−1) [55]. The culture medium was renewed every 2 days until a monolayer cell structure was formed (see Supplementary Figure S2), and transport experiments were initiated after 10 days. In transport experiments, the medium in the apical (upper) compartment of the Transwell system was removed, and 0.5 mL of AerExt or RootExt at a concentration of 40 μg mL^−1 and 20 μg mL^−1, respectively, was added to these compartments (applied in duplicate). Also, a medium containing 0.4% (v/v) ethanol was used as control group. The basolateral (lower) compartments were filled with 1.5 mL of fresh culture medium. The cells were incubated under these conditions for 2, 4, and 24 h.
At the end of the incubation periods, media samples were collected from both chambers and lyophilized using a freeze-drying system from Martin Christ (Osterode am Harz, Germany). The samples were stored at −80 °C until analysis. The collected samples were subjected to chemical analyses to evaluate the ability of bioactive compounds contained in the extracts to pass through the cell monolayer.
The transport efficiency (Te) of bioactive substances was calculated based on Equation (3), described by [56]:Te (%) = CLower/CUpper × 100(3)
This calculation was performed to understand whether the compound crosses the cell layer and how efficiently it is transported.
For this purpose, 0.2 mL of cold water (H2O) was added to the samples, and the samples were vortexed for 10 s. Then, 0.8 mL of cold methanol was added and vortexed again for 10 s. Then, the mixture was centrifuged at 14,000 rpm for 5 min, and the supernatant was carefully transferred to a 1.5 mL Eppendorf tube and dried in a SpeedVac device at 40 °C and 13 bar pressure. Finally, the dried samples were resuspended in 25 μL of pure ethanol for their subsequent analysis.
For HPLC-Q-TOF MS/MS analysis, aliquots of 2 μL were injected into an HPLC model 1290 coupled to a Q-TOF series 6540 (Agilent Technologies, Waldbronn, Germany). For GC-Q-TOF MS analysis, aliquots of 1 μL were injected with a split ratio of 1:10 into a GC model 7890B coupled to a Q-TOF series 7200 (Agilent Technologies, Waldbronn, Germany). The HPLC-MS and GC-MS chromatograms were processed using the Agilent Mass Hunter Qualitative software (version B.10.0) to verify the retention time and exact mass of the compounds previously reported by us [25] and to extract their peak area to calculate the BBB permeability.

“And” between values parts separate entries of the source, which are not always exact repeats. Equal entries are not always repeated. Structures can show the parent of a compound that is named as a salt.

With `CC(C)=CCCC(C)(O)[C@H]1CC[C@]2(C)[C@@H]1[C@H](O)C[C@@H]1[C@@]3(C)CC[C@H](O)C(C)(C)[C@@H]3CC[C@]12C` (stereo in doubt) [Protopanaxadiol], the log p in data set [1] is reported as 7.2. Also, in data set [2], the “AerExt log Pe” value was “n.q” and the “RootExt log Pe” value is “n.q”.
As for `COc1ccc(O)c(C=O)c1` [2-hydroxy-5-methoxybenzaldehyde], the log p in data set [1] is reported as 1.8. In addition, in data set [3], the “AerExt Te (%) ± SD 2 h” value was determined as 18.8 ± 2.3%, the “AerExt Te (%) ± SD 4 h” value turned out to be 9.1 ± 1.2%, the “AerExt Te (%) ± SD 24 h” value is listed as 11.0 ± 1.3% and the “RootExt Te (%) ± SD 2 h” value amounted to 31.8 ± 8.0%. For the same compound, in data set [3], the “RootExt Te (%) ± SD 4 h” value was determined as 36.3 ± 10.9% and the “RootExt Te (%) ± SD 24 h” value is listed as 164.8 ± 21.0%.
Regarding `CC(=O)c1ccc(O)c(O)c1` [3,4-dihydroxyacetophenone], the log p in data set [1] is given as 1.5. Further, the Papp (in general, the rate of passage across a membrane or cell layer, normalised by area and donor concentration) at 4 h in data set [2] is 17.4 ×10⁻⁶ cm/s.
Turning to `CC12CCC3C(CC3(C)C)C(C)(CCC1=O)O2` (stereo not drawn) [3,7-epoxycaryophyllan-6-One], in data set [1], the log p is reported as 2.8.
For `O=Cc1cccc(C(=O)O)c1O` [3-formylsalicylic acid], in data set [1], the log p is 1.0. In addition, the “RootExt log Pe” value in data set [2] was −5.50.
Turning to `O=C(/C=C/c1ccc(O)c(O)c1)OC1C(O)CC2(O)CC1OC2=O` (stereo not drawn) [4-caffeoylquinic acid lactone], the log p in data set [1] is recorded as 0.4. Also, the “AerExt Cross BBB Potential” value in data set [2] is reported as “+ (log Pe < −6.5)”.
As for `O=Cc1ccc(O)cc1` [4-hydroxybenzaldehyde], in data set [3], the “AerExt Te (%) ± SD 2 h” value is listed as 23.3 ± 3.1%, the “AerExt Te (%) ± SD 4 h” value was 18.5 ± 0.3%, the “AerExt Te (%) ± SD 24 h” value is on record as 49.4 ± 5.9% and the “RootExt Te (%) ± SD 2 h” value turned out to be 62.1 ± 21.9%. For the same compound, in data set [3], the “RootExt Te (%) ± SD 4 h” value is on record as 57.5 ± 1.7% and the “RootExt Te (%) ± SD 24 h” value stood at 184.6 ± 23.0%.
For the compound `Cc1ncsc1CCO` [4-methyl-5-thiazoleethanol], the log p in data set [1] is 0.8.
Take `O=c1ccc2cc(O)c(O)cc2o1` [6,7-dihydroxycoumarin]: the log p in data set [1] is 1.2. For the same compound, in data set [2], the “RootExt log Pe” value is listed as “n.q” and the “RootExt Cross BBB Potential” value is listed as “–”.
For `CC(=O)OC[C@H]1O[C@@H](Oc2cc(O)c3c(=O)c(-c4ccc(O)cc4)coc3c2)[C@H](O)[C@@H](O)[C@@H]1O` [6″-O-acetylgenistin], the log p in data set [1] was 0.9. Further, in data set [2], the “AerExt log Pe” value is on record as “n.q”.
On to `COc1cc2ccc(=O)oc2cc1O` [7-hydroxy-6-methoxycoumarin], for which the log p in data set [1] is listed as 1.5. For the same compound, in data set [3], the “AerExt Te (%) ± SD 2 h” value amounted to 0.6 ± 0.2%, the “AerExt Te (%) ± SD 4 h” value turned out to be 1.9 ± 0.1%, the “AerExt Te (%) ± SD 24 h” value amounted to 6.1 ± 1.5% and the “RootExt Te (%) ± SD 2 h” value is “n.q”. Besides, in data set [3], the “RootExt Te (%) ± SD 4 h” value is “n.q” and the “RootExt Te (%) ± SD 24 h” value is recorded as “n.q”.
Take `CC1=C[C@H]2[C@@H](CC1=O)[C@H](C)C[C@H](O)[C@H]2C(C)C` [8-hydroxyageraphorone]: the log p in data set [1] was 2.9. Besides, in data set [3], the “AerExt Te (%) ± SD 2 h” value is recorded as “n.q”, the “AerExt Te (%) ± SD 4 h” value is recorded as “n.q”, the “AerExt Te (%) ± SD 24 h” value is reported as “n.q” and the “RootExt Te (%) ± SD 2 h” value is given as “n.q”. Further, in data set [3], the “RootExt Te (%) ± SD 4 h” value is listed as “n.q” and the “RootExt Te (%) ± SD 24 h” value is on record as 124.7 ± 16.9%.
Take `C=C(C)C(O)CCC(C)C1CCC2(C)C3CCC4C(C)(C)C(O)CCC45CC35CCC12C` (stereo not drawn) [9,19-cyclolanost-25-ene-3,24-diol]: the log p in data set [1] is recorded as 8.6. Further, in data set [2], the “AerExt log Pe” value is −5.60, the “AerExt Cross BBB Potential” value was “+ (log Pe < −6.5)”, the “RootExt log Pe” value was −5.79 and the “RootExt Cross BBB Potential” value is given as “+ (log Pe < −6.5)”.
In the case of `C=C1CC[C@H]2O[C@]2(C)CC[C@@H]2[C@@H]1CC2(C)C` [(–)-caryophyllene oxide], the log p in data set [1] is 3.6. In data set [3], the “AerExt Te (%) ± SD 2 h” value was 4.3 ± 0.1%, the “AerExt Te (%) ± SD 4 h” value came to 8.6 ± 0.6%, the “AerExt Te (%) ± SD 24 h” value worked out at 8.8 ± 0.7% and the “RootExt Te (%) ± SD 2 h” value is given as “n.q”. In data set [3], the “RootExt Te (%) ± SD 4 h” value is reported as “n.q” and the “RootExt Te (%) ± SD 24 h” value was “n.q”.
On to `C=CCc1cc(OC)c(OC)c(OC)c1` [Elemicin], for which, in data set [1], the log p is on record as 2.5.
As to `CCOC(=O)/C=C/c1ccc(O)c(O)c1` [Ethyl caffeate], in data set [1], the log p is 2.6.
Turning to `COc1cc(/C=C/C(=O)O)ccc1O` [Ferulic acid], in data set [3], the “AerExt Te (%) ± SD 2 h” value was determined as 1.9 ± 0.2%, the “AerExt Te (%) ± SD 4 h” value is listed as 1.9 ± 0.2%, the “AerExt Te (%) ± SD 24 h” value turned out to be 19.8 ± 10.3% and the “RootExt Te (%) ± SD 2 h” value was “n.q”. Moreover, in data set [3], the “RootExt Te (%) ± SD 4 h” value is on record as “n.q” and the “RootExt Te (%) ± SD 24 h” value is on record as “n.q”. Moreover, in data set [3] (listed as ferulic acid), the “AerExt Te (%) ± SD 2 h” value was determined as 2% and the “AerExt Te (%) ± SD 24 h” value came to 20%. Also, in data set [2], the “RootExt log Pe” value was “n.q”.
As to `COc1cc2ccc(=O)oc2c(OC)c1O` [Isofraxidin], the log p in data set [1] was 1.5. In data set [3], the “AerExt Te (%) ± SD 2 h” value is listed as “n.q”, the “AerExt Te (%) ± SD 4 h” value is recorded as “n.q”, the “AerExt Te (%) ± SD 24 h” value is “n.q” and the “RootExt Te (%) ± SD 2 h” value is given as “n.q”. Moreover, in data set [3], the “RootExt Te (%) ± SD 4 h” value is listed as “n.q” and the “RootExt Te (%) ± SD 24 h” value is recorded as 30.5 ± 6.6%.
With `CC1(C)C[C@H](O)C[C@@]2(C)OC(=O)C=C12` [Loliolide], the log p in data set [1] is given as 1.0. Besides, in data set [3], the “AerExt Te (%) ± SD 2 h” value was 6.2 ± 0.7%, the “AerExt Te (%) ± SD 4 h” value came out at 12.1 ± 0.8% and the “AerExt Te (%) ± SD 24 h” value was 12.4 ± 0.8%.
Regarding `O=c1cc(-c2ccc(O)c(O)c2)oc2cc(O)cc(O)c12` [Luteolin], in data set [3], the “crossing of the HBMEC-BBB” value is “could not cross the HBMEC-BBB”. The compound also showed an apparent permeability coefficient (Papp) at 4 h in data set [2] of 26.3 ×10⁻⁶ cm/s.
For `c1ccc2c(c1)[nH]c1cnccc12` [Norharman], in data set [1], the log p is recorded as 3.2. Besides, in data set [3], the “AerExt Te (%) ± SD 2 h” value was determined as 2.3 ± 0.1%, the “AerExt Te (%) ± SD 4 h” value was found to be 5.3 ± 1.4% and the “AerExt Te (%) ± SD 24 h” value turned out to be 4.1 ± 0.2%.
Regarding `C[C@@H]1CC[C@H]2C(C(=O)O)=C[C@@H]3[C@@H](O)C(C)(C)C[C@@]132` [Pentalenic acid], the log p in data set [1] is on record as 2.7.
`O=Cc1ccc(O)c(O)c1` [Protocatechuic aldehyde]: in data set [1], the log p is recorded as 1.3. In data set [3], the “crossing of the HBMEC-BBB” value is listed as “could not cross the HBMEC-BBB”, the “AerExt Te (%) ± SD 2 h” value is “n.q”, the “AerExt Te (%) ± SD 4 h” value is “n.q” and the “AerExt Te (%) ± SD 24 h” value is recorded as “n.q”. In data set [3], the “RootExt Te (%) ± SD 2 h” value is listed as “n.q” and the “RootExt Te (%) ± SD 4 h” value is reported as “n.q”.
For `COc1cc(/C=C/C(=O)O)ccc1OS(=O)(=O)O` [ferulic acid sulfate], in data set [3], the “abundance in the apical compartment relative to the basolateral compartment (times higher)” value is given as about 40 times and the “Te of newly formed sulfated metabolites” value came to 2.3%.
For the compound `C=C(C)[C@@H]1CC[C@@]2(C)CCC(=O)C(C)=C2C1` [α-cyperone], in data set [1], the log p is 3.8. In data set [3], the “AerExt Te (%) ± SD 2 h” value is reported as 12.2 ± 0.1%, the “AerExt Te (%) ± SD 4 h” value came out at 25.1 ± 1.4%, the “AerExt Te (%) ± SD 24 h” value turned out to be 56.5 ± 6.5% and the “RootExt Te (%) ± SD 2 h” value came to 15.4 ± 2.6%. In addition, in data set [3], the “RootExt Te (%) ± SD 4 h” value amounted to 20.1 ± 12.0%; the “RootExt Te (%) ± SD 24 h” value is 187% and 187.3 ± 12.5%.
With apigenin sulfate, in data set [3], the “abundance in the apical compartment relative to the basolateral compartment (times higher)” value is about 40 times and the “Te of newly formed sulfated metabolites” value amounted to 2.7%.

These data come from PMC12386606, “Evaluation of the In Vitro Blood–Brain Barrier Transport of Ferula persica L. Bioactive Compounds” (International Journal of Molecular Sciences, 2025).
